Assay results: ChEMBL document CHEMBL5661967, “Antitumor activity of HKI-272, an orally active, irreversible inhibitor of the HER-2 tyrosine kinase” (Cancer Res, 2004)
The source made the active and inactive calls. No cut-off for these calls is given here.

Assays:
[1] = biological target: Inhibitor of nuclear factor kappa-B kinase subunit beta (Homo sapiens, UniProt O14920); assay: Inhibition of recombinant IKK-2 (unknown origin) using peptide as substrate
[2] = system: SK-OV-3; assay: Antitumor activity against human SK-OV-3 cells xenografted in athymic nude mouse assessed as tumor growth inhibition at 5 mg/kg, po administered daily for 20 days via gavage and measured on day 21 relative to control; assay type: functional; conditions: SK-OV-3, 504 h, time 21 day, read-out: TGI
[3] = system: BT-474; assay: Cell cycle arrest in human BT-474 cells assessed as accumulation of cells at S phase at 1 nM measured after 12 to 16 hrs by propidium iodide staining based flow cytometry (reference value: 21%); assay type: functional; conditions: time 12-16 hrs
[4] = system: BT-474; assay: Cell cycle arrest in human BT-474 cells assessed as accumulation of cells at G0-G1 phase at 2 nM measured after 12 to 16 hrs by propidium iodide staining based flow cytometry (reference value: 61%); assay type: functional; conditions: time 12-16 hrs
[5] = In vivo inhibition of HER2 autophosphorylation in human BT-474 cells xenografted athymic nude mouse at 40 mg/kg, po administered as single dose via gavage measured after 1 hr by immunoblot analysis relative to control; assay type: functional
[6] = biological target: Cyclin-dependent kinase 2/cyclin E1 (Homo sapiens, UniProt P24941); assay: Inhibition of recombinant CDK2/cyclin E (unknown origin) using protein as substrate; assay type: protein-complex assay
[7] = system: BT-474; assay: Antitumor activity against human BT-474 cells xenografted in athymic nude mouse assessed as tumor growth inhibition at 40 mg/kg, po administered daily for 20 days via gavage and measured on day 21 relative to control; assay type: functional; conditions: BT-474, 504 h, time 21 day, read-out: TGI
[8] = system: SK-BR-3; assay: Antiproliferative activity against human SK-BR-3 cells measured after 2 days by sulforhodamine B assay; assay type: functional, cell-based; conditions: SK-BR-3, 48 h
[9] = system: SW-620; assay: Antiproliferative activity against human SW620 cells measured after 2 days by sulforhodamine B assay; assay type: functional, cell-based; conditions: SW-620, 48 h
[10] = system: BT-474; assay: Cell cycle arrest in human BT-474 cells assessed as accumulation of cells at S phase at 2 nM measured after 12 to 16 hrs by BrdUrd uptake assay (reference value: 26%); assay type: functional; conditions: time 12-16 hrs
[11] = system: BT-474; assay: Cell cycle arrest in human BT-474 cells assessed as accumulation of cells at G0-G1 phase at 0.4 nM measured after 12 to 16 hrs by propidium iodide staining based flow cytometry (reference value: 61%); assay type: functional; conditions: time 12-16 hrs
[12] = biological target: T1, Receptor tyrosine-protein kinase erbB-2 (Homo sapiens, UniProt P04626); assay: Inhibition of [14C]HKI-272 binding to HER2 in human BT-474 cells at 5 uM measured after 15 mins by fluorography; assay type: cell-based
[13] = system: BT-474; assay: Cell cycle arrest in human BT-474 cells assessed as down regulation of cyclin D1 expression incubated for 12 to 16 hrs by Western blot analysis; assay type: functional, cell-based
[14] = Toxicity in human BT-474 cells xenografted athymic nude mouse at 10 to 40 mg/kg, po administered daily via gavage for 20 days; assay type: organism-based; conditions: in vivo, 480 h, dose 10-40 mg/kg, time 20 day
[15] = system: A-431; assay: Antitumor activity against human A-431 cells xenografted in athymic nude mouse assessed as tumor growth inhibition at 20 mg/kg, po administered daily for 10 days via gavage and measured on day 15 relative to control; assay type: functional; conditions: A-431, 360 h, time 15 day, read-out: TGI
[16] = system: NIH3T3; assay: Antitumor activity against mouse 3T3 cells transfected with HER-2 oncogene implanted in po dosed athymic nude mouse assessed as tumor growth inhibition administered daily for 10 days via gavage and measured on day 21; assay type: functional, organism-based; conditions: dose 20-80 mg/kg, time 21.0 day
[17] = biological target: RAF proto-oncogene serine/threonine-protein kinase (Homo sapiens, UniProt P04049); assay: Inhibition of recombinant c-Raf (unknown origin) using protein as substrate
[18] = species on record: Homo sapiens; assay: Selectivity ratio of IC50 for recombinant KDR (unknown origin) to IC50 for recombinant N-terminal His6-tagged HER2 cytoplasmic domain (676 to 1255 residues)(unknown origin) expressed in baculovirus infected Sf9 insect cells
[19] = Toxicity in human SK-OV-3 cells xenografted athymic nude mouse assessed as body weight loss at 10 to 60 mg/kg, po administered daily via gavage for 20 days; assay type: organism-based; conditions: in vivo, 480 h, dose 10-60 mg/kg, time 20 day
[20] = system: BT-474; assay: Cell cycle arrest in human BT-474 cells assessed as accumulation of cells at Sub-G1 phase at 2 nM measured after 12 to 16 hrs by propidium iodide staining based flow cytometry (reference value: 8%); assay type: functional; conditions: time 12-16 hrs
[21] = system: BT-474; assay: Cell cycle arrest in human BT-474 cells assessed as down regulation of Rb expression at 1 to 10 nM incubated for 12 to 16 hrs by Western blot analysis; assay type: functional, cell-based; conditions: dose 1-10 nM, time 12-16 hrs
[22] = system: BT-474; assay: Cell cycle arrest in human BT-474 cells assessed as accumulation of cells at G0-G1 phase at 0.2 nM measured after 12 to 16 hrs by propidium iodide staining based flow cytometry (reference value: 61%); assay type: functional; conditions: time 12-16 hrs
[23] = system: BT-474; assay: Antitumor activity against human BT-474 cells xenografted in athymic nude mouse assessed as tumor growth inhibition at 10 mg/kg, po administered daily for 20 days via gavage and measured on day 28 relative to control; assay type: functional; conditions: BT-474, 672 h, time 28 day, read-out: TGI
[24] = biological target: T1, Receptor tyrosine-protein kinase erbB-2; assay: Inhibition of HER2 autophosphorylation in human BT-474 cells at 1 uM measured after 3 hrs by Western blot analysis relative to control; assay type: cell-based
[25] = system: BT-474; assay: Cell cycle arrest in human BT-474 cells assessed as accumulation of cells at G2/M phase at 1 nM measured after 12 to 16 hrs by propidium iodide staining based flow cytometry (reference value: 11%); assay type: functional; conditions: time 12-16 hrs
[26] = biological target: T1, Receptor tyrosine-protein kinase erbB-2; assay: Irreversible inhibition of HER2 autophosphorylation in human BT-474 cells at 1 uM incubated for 3 hrs followed by compound washout and further incubated for 5 hrs by Western blot analysis relative to control; assay type: cell-based
[27] = Toxicity in human SK-OV-3 cells xenografted athymic nude mouse at 10 to 60 mg/kg, po administered daily via gavage for 20 days; assay type: organism-based; conditions: in vivo, 480 h, dose 10-60 mg/kg, time 20 day
[28] = system: BT-474; assay: Cell cycle arrest in human BT-474 cells assessed as accumulation of cells at S phase at 2 nM measured after 12 to 16 hrs by propidium iodide staining based flow cytometry (reference value: 21%); assay type: functional; conditions: time 12-16 hrs
[29] = system: MDA-MB-435; assay: Antiproliferative activity against human MDA-MB-435 cells measured after 2 days by sulforhodamine B assay; assay type: functional, cell-based; conditions: MDA-MB-435, 48 h
[30] = system: SK-OV-3; assay: Antitumor activity against human SK-OV-3 cells xenografted in athymic nude mouse assessed as tumor growth inhibition at 60 mg/kg, po administered daily for 20 days via gavage and measured on day 21 relative to control; assay type: functional; conditions: SK-OV-3, 504 h, time 21 day, read-out: TGI
[31] = biological target: Epidermal growth factor receptor (Homo sapiens, UniProt P00533); assay: Inhibition of EGF-induced EGFR phosphorylation in human A-431 cells at 1 uM incubated for 3 hrs by Western blot analysis relative to control; assay type: cell-based
[32] = system: MX1; assay: Antitumor activity against human MX1 cells xenografted in athymic nude mouse assessed as tumor growth inhibition; assay type: functional, cell-based
[33] = biological target: RAC-alpha serine/threonine-protein kinase (Homo sapiens, UniProt P31749); assay: Inhibition of recombinant AKT (unknown origin) using peptide as substrate
RAC-alpha serine/threonine-protein kinase, sequence (P31749 whole entry): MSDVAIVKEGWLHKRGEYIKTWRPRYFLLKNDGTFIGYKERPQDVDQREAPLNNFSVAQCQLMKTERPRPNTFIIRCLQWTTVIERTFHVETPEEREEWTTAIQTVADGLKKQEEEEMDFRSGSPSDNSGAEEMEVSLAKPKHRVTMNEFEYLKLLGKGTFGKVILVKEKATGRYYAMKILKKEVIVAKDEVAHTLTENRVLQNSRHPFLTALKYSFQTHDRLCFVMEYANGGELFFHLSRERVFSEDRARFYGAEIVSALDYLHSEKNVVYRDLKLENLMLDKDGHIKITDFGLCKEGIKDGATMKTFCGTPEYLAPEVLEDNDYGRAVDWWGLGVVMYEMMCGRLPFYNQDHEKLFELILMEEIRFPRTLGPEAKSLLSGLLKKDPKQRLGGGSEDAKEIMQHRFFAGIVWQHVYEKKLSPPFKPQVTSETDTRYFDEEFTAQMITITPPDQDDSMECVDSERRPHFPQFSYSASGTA

T1 sequence (P04626 whole entry): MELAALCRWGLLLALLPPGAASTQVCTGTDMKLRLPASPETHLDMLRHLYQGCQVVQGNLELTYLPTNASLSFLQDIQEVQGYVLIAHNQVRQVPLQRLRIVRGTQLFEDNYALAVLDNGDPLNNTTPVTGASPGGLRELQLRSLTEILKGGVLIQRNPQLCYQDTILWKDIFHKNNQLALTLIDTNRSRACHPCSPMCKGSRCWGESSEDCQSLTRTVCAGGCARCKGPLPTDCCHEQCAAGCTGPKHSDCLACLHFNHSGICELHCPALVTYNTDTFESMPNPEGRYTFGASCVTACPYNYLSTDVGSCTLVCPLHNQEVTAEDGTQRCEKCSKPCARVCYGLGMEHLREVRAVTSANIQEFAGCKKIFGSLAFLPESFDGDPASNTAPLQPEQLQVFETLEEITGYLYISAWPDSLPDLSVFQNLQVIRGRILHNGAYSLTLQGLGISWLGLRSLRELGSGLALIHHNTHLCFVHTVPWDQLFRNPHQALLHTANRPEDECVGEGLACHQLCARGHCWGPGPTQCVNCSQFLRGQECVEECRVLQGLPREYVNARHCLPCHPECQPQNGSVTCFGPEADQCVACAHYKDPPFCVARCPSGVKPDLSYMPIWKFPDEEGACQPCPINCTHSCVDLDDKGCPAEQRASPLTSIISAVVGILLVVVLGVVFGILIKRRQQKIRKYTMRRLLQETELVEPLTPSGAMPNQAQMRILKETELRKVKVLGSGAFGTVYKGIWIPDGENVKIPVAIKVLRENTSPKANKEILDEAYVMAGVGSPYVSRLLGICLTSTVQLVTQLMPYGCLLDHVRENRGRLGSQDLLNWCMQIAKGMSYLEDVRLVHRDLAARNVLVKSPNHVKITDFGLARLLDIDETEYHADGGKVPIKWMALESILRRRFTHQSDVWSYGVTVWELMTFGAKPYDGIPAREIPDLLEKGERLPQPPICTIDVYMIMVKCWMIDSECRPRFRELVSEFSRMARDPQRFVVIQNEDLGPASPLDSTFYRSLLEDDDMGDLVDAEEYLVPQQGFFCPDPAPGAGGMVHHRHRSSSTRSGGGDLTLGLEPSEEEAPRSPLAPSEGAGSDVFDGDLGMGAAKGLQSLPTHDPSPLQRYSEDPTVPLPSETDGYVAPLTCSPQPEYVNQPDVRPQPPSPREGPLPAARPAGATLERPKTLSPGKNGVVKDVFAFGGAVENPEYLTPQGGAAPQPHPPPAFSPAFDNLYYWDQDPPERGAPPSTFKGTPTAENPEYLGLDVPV
RAF proto-oncogene serine/threonine-protein kinase, sequence (P04049 whole entry, the tested form may be a part): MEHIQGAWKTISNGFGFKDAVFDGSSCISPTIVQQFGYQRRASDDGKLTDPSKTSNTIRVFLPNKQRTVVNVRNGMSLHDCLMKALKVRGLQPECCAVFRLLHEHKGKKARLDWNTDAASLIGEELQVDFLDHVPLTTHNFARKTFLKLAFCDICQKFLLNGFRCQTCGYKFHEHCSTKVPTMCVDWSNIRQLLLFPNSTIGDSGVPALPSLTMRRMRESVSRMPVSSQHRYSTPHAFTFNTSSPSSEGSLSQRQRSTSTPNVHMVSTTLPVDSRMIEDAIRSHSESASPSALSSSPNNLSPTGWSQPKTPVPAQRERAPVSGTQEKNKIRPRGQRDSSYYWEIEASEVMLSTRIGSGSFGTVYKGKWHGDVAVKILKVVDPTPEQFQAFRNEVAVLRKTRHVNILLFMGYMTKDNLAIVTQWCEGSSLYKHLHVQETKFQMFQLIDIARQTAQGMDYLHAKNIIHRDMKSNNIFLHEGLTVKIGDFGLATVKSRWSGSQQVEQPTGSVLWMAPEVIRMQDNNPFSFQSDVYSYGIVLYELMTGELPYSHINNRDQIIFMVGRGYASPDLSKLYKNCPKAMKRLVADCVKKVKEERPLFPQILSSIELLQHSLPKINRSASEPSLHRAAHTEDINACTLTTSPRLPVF
Epidermal growth factor receptor, sequence (P00533 whole entry): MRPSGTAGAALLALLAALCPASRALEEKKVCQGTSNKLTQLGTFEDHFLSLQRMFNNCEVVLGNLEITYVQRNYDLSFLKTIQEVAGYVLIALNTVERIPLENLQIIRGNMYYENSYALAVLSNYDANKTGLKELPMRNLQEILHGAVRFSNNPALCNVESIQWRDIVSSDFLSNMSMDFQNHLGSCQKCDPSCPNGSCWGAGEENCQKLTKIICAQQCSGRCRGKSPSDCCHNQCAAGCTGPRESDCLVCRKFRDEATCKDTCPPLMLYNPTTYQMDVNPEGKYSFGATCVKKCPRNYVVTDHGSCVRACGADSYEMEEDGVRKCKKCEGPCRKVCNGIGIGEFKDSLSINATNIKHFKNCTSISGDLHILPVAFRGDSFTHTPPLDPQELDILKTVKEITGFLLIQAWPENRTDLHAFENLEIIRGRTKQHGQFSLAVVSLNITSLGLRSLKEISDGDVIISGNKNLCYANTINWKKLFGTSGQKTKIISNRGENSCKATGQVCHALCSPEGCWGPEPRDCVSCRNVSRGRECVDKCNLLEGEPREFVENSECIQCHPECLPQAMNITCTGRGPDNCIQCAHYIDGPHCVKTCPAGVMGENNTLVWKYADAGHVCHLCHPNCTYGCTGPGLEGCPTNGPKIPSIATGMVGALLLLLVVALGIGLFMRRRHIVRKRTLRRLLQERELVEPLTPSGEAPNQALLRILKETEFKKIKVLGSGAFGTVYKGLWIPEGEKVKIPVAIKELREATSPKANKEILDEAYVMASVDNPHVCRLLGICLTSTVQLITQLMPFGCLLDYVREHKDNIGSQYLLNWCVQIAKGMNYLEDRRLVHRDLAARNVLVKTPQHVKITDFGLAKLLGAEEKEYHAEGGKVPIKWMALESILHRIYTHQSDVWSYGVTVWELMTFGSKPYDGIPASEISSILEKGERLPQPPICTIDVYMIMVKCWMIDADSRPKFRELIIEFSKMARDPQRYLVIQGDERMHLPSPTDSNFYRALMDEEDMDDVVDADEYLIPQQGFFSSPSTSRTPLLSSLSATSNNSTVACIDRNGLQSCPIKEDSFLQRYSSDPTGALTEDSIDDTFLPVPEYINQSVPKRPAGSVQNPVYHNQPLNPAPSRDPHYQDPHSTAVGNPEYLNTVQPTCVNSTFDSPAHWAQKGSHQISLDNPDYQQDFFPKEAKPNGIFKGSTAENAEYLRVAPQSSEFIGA
Inhibitor of nuclear factor kappa-B kinase subunit beta, sequence (O14920 whole entry): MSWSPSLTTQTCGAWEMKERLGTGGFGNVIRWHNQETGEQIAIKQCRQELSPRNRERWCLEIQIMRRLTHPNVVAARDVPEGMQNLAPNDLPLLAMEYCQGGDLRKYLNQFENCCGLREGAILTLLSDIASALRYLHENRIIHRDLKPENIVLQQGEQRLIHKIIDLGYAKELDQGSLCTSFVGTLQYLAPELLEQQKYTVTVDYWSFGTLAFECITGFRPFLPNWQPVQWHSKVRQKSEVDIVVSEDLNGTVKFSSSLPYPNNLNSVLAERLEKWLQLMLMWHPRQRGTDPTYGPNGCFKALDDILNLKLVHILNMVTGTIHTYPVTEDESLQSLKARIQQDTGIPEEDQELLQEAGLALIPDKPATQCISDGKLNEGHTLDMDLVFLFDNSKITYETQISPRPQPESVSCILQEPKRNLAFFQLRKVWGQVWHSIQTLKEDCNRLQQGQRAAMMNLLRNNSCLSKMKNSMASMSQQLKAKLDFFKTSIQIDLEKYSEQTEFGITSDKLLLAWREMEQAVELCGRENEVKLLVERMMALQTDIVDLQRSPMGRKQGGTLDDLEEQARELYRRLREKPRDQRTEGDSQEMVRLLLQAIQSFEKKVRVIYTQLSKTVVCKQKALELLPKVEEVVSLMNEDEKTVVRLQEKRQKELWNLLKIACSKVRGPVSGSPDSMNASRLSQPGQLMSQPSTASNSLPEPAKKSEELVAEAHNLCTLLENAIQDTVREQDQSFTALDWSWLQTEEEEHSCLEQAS

IC50 [1]: > 9 µM
IC50 [6]: > 18 µM
IC50 [8]: 0.002 µM
IC50 [9]: 0.69 µM
inhibition [12]: Active
IC50 [13]: 0.009 µM
IC50 [17]: > 18 µM
inhibition [24]: 98%
inhibition [26]: 97%
IC50 [29]: 0.96 µM
inhibition [31]: > 99%
IC50 [33]: > 20 µM
SMILES: COc1cc2ncc(C#N)c(Nc3ccc(OCc4ccccn4)c(Cl)c3)c2cc1NC(=O)/C=C/CN(C)C
inhibition in vivo at 5 mg/kg [2]: 31%
Activity [3]: 10%
Activity [4]: 66%
inhibition in vivo at 40 mg/kg [5]: 84%
inhibition in vivo at 40 mg/kg [7]: 88%
Activity [10]: 10%
Activity [11]: 65%
Activity [14]: Non-Toxic
inhibition in vivo at 20 mg/kg [15]: 44%
TGI [16]: Dose-Dependent Effect
Ratio IC50 [18]: 14
Activity [19]: Non-Toxic
Activity [20]: 11%
Activity [21]: Active
Activity [22]: 63%
inhibition in vivo at 10 mg/kg [23]: 67%
Activity [25]: 14%
Activity [27]: Non-Toxic
Activity [28]: 12%
inhibition in vivo at 60 mg/kg [30]: 85%
TGI [32]: inactive
